Calls of active or inactive are those of the source.
Key:
Trypsin = Trypsin (Sus scrofa, UniProt P00761); test: porcine trypsin inhibitors, dose response, selectivity assay for Rce1 protease inhibitor project, biochemical, quenched peptide fluorescence, cherry-pick (AID 488789)
SUMO-activating enzyme [1] = target: T1, SUMO-activating enzyme (Homo sapiens, UniProt Q9UBT2); test: SUMOylation inhibitor hit validation, confirmation, SUMOylation inhibitor project, biochemical, AlphaScreen (AID 2018); assay type: functional
T1 sequence (Q9UBE0 whole entry): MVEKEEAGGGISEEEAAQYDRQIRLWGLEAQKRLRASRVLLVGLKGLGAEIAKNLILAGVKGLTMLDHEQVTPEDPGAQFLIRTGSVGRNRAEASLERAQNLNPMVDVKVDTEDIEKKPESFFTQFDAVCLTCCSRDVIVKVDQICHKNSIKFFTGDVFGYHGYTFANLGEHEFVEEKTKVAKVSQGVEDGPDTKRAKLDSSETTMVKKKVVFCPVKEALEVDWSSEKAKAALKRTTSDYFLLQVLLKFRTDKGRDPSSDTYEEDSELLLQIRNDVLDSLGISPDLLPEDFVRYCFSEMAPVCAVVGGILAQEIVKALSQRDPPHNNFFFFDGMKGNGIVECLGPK
T1 sequence (Q9UBT2 whole entry): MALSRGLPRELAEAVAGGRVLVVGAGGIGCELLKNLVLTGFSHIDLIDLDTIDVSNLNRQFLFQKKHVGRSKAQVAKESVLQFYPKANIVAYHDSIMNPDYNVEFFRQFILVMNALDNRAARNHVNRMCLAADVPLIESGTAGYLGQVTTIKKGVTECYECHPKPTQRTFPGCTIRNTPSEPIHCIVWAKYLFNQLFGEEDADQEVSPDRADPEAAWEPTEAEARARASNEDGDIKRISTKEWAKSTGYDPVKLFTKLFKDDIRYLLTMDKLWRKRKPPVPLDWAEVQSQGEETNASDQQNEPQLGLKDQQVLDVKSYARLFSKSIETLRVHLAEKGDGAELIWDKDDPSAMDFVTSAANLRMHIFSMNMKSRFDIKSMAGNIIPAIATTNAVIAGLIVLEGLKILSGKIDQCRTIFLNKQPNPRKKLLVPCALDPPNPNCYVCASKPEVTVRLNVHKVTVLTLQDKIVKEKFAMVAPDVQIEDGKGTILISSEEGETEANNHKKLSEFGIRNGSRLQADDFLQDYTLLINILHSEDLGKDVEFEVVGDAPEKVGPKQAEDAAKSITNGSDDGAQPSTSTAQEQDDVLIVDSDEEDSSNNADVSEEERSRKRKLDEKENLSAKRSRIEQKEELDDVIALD

SUMO-activating enzyme [2] = target: T1, SUMO-activating enzyme; test: inhibitors of in vitro SUMOylation cascade, primary screen, biochemical, HTRF, uHTS (AID 2006); assay type: protein-complex assay
[3] = target: Voltage-dependent T-type calcium channel subunit alpha-1H (Homo sapiens, UniProt O95180); assay type: functional;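 also: channel activity triggered by adding a high calcium stimulation buffer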
Voltage-dependent T-type calcium channel subunit alpha-1H, sequence (O95180 whole entry): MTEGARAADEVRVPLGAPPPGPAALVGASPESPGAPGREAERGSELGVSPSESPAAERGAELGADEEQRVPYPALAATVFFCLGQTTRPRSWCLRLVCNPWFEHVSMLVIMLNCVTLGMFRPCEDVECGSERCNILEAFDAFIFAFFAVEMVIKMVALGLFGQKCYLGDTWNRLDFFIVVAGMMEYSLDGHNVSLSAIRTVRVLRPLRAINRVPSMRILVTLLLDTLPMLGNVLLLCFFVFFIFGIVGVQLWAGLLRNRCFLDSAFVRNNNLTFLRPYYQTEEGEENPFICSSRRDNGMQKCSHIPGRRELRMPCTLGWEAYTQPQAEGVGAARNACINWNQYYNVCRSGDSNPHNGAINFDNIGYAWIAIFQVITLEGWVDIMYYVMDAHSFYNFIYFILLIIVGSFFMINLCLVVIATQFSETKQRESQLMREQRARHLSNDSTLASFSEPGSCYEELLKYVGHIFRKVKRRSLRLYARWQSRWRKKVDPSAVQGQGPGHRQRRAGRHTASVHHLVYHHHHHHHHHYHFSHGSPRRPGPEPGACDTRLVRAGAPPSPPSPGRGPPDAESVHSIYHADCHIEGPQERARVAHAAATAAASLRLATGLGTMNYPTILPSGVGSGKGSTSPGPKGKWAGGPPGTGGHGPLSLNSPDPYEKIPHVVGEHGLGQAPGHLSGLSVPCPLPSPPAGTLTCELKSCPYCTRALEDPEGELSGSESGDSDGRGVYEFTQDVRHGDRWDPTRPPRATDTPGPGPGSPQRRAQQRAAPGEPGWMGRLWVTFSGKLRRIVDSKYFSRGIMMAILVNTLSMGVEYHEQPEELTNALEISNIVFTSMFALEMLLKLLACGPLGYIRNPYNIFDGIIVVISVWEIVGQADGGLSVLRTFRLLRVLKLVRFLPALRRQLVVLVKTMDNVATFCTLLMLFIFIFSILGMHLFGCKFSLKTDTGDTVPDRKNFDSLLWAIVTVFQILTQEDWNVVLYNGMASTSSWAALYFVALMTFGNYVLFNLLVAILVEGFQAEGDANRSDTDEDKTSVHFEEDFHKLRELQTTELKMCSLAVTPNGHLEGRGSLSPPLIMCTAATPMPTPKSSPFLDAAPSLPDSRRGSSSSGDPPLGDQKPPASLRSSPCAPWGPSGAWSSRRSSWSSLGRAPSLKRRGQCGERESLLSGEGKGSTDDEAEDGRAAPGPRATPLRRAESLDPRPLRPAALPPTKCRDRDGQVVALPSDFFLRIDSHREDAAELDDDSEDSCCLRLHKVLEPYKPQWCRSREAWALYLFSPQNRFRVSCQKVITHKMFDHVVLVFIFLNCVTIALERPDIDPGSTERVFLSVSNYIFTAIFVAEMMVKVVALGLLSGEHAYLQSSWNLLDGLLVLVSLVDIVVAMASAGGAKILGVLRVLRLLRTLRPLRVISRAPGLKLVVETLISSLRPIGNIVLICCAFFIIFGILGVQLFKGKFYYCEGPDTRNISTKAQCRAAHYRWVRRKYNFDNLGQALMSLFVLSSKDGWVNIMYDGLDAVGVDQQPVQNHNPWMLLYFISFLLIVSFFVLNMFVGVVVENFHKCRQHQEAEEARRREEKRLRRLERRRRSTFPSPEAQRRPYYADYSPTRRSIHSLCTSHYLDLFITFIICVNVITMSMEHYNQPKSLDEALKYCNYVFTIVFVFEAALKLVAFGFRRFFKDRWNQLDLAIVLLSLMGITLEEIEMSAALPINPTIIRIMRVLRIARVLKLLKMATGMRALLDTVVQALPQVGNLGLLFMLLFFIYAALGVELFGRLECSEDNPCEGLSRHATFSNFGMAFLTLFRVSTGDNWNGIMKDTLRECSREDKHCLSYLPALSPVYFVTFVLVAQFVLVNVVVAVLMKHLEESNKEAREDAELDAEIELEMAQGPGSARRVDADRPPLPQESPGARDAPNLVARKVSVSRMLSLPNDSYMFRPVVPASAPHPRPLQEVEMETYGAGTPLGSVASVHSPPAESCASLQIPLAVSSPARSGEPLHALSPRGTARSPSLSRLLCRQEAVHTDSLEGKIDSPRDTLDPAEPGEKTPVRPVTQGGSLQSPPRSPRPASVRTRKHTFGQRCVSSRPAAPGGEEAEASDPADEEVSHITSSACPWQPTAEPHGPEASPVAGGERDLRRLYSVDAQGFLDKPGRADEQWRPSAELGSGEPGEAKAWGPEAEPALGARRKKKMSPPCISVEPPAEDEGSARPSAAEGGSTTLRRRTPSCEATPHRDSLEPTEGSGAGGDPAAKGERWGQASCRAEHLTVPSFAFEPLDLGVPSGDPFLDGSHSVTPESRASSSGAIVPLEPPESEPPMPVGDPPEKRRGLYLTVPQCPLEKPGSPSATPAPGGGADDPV

[4] = THP-1 cell cytotoxicity, dose response, cytotoxicity control for non-replicating M. tuberculosis project (AID 489025); assay type: functional
[5] = HepG2 cell cytotoxicity, dose response, cytotoxicity control for non-replicating M. tuberculosis project (AID 489018); assay type: functional; conditions: Mycobacterium tuberculosis
cells = assay type: functional
[6] = target: Induced myeloid leukemia cell differentiation protein Mcl-1 (Homo sapiens, UniProt Q07820); assay type: functional
Induced myeloid leukemia cell differentiation protein Mcl-1, sequence (Q07820 whole entry): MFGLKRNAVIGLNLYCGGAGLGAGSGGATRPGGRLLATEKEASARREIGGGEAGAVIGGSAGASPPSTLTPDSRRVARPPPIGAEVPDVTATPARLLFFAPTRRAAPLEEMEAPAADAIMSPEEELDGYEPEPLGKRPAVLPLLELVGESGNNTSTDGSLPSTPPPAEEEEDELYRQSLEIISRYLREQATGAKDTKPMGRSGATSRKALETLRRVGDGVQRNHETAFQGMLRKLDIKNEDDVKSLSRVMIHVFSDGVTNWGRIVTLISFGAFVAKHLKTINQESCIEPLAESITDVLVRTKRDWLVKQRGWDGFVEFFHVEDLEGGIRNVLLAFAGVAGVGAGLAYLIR

Leucine aminopeptidase = target: T2, Leucine aminopeptidase (Plasmodium falciparum 3D7, UniProt Q8IL11); test: P. falciparum M17LAP inhibitors, primary screen, biochemical, fluorogenic H-Leu-NHMec substrate, 1536-well (AID 1619); assay type: functional
T2 sequence (Q8IL11 whole entry): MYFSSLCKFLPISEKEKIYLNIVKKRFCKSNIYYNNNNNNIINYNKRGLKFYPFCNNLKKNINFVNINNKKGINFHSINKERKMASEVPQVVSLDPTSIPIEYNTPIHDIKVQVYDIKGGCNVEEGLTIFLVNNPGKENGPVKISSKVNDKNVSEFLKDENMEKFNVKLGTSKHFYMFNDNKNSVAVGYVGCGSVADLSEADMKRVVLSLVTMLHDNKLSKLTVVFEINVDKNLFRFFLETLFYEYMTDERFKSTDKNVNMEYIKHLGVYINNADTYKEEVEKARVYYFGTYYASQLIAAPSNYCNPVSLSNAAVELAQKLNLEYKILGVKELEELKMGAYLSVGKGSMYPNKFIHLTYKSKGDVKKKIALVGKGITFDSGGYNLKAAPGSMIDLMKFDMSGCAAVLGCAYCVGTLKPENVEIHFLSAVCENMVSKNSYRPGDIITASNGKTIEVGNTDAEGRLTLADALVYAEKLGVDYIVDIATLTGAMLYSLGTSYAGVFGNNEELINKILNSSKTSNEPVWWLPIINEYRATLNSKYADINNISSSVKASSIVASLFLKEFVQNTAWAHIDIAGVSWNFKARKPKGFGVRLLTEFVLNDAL

[7] = M. tuberculosis H37Rv growth inhibitors, H37Rv strain (AID 1626); assay type: functional
[8] = target: T3, Replicative DNA helicase DnaB (Mycobacterium tuberculosis, UniProt P9WMR3); test: DnaB intein splicing inhibitors, dose response, biochemical, cell-free fluorescence (AID 449749); assay type: functional
T3 sequence (P9WMR3 whole entry): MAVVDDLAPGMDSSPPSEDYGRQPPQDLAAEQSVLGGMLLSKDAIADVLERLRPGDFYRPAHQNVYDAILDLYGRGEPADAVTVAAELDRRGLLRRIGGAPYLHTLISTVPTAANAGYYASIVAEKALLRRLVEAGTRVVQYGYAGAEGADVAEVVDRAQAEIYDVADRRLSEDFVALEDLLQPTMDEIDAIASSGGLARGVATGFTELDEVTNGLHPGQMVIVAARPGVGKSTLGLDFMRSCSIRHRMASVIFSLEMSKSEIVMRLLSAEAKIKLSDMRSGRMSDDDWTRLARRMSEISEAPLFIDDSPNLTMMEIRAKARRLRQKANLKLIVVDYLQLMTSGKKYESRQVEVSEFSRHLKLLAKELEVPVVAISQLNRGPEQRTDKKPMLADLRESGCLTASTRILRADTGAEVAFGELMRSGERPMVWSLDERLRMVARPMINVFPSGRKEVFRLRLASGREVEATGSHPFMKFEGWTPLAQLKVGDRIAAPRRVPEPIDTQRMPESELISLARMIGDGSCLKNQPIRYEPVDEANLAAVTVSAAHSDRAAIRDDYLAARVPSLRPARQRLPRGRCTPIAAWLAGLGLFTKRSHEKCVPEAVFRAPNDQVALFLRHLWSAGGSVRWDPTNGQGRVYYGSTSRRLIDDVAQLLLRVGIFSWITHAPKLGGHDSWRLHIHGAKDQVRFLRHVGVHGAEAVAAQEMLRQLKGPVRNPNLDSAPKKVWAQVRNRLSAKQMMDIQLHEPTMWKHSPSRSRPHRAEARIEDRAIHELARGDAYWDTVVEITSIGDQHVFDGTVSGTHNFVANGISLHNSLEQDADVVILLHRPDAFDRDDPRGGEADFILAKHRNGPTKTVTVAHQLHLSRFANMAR

Protein RecA = target: T4, Protein RecA (Mycobacterium tuberculosis, UniProt P9WHJ3); test: Fluorescence Cell-Free Homogeneous Dose Retest to Identify Inhibitors of RecA-Intein Splicing Activity. [Related pubchem assays (depositor defined):AID2097, AID2223, AID489010, AID492950]; assay type: functional
T4 sequence (P9WHJ3 whole entry): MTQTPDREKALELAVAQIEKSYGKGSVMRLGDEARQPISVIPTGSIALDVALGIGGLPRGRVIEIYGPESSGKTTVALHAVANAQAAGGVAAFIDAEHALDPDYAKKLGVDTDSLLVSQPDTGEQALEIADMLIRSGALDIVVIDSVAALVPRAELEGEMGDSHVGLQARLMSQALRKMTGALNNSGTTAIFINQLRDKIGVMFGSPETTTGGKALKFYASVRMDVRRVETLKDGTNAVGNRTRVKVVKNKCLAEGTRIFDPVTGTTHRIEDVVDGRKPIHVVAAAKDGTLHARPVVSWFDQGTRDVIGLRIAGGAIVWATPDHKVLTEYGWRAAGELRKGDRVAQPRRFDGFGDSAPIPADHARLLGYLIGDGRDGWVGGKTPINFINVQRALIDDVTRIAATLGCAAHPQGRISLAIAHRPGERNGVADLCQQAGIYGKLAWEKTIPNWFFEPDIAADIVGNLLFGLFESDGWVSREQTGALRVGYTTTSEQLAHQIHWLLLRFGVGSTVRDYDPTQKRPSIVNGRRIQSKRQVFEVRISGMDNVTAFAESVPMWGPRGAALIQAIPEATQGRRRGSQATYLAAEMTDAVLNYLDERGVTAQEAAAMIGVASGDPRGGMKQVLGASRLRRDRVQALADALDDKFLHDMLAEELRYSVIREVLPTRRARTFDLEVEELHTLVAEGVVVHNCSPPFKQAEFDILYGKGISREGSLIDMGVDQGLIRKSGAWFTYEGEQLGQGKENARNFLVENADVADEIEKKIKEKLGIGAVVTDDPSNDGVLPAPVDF

[9] = target: Eukaryotic translation initiation factor 4H (Homo sapiens, UniProt Q15056); test: human eIF4H binding inhibitors, primary screen, translation initiation inhibitor project, biochemical, uHTS, fluorescence polarization (AID 2012)
[10] = target: Polyadenylate-binding protein 1 (Homo sapiens, UniProt P11940); test: PABP poly(A) RNA binding inhibitors, primary screen, biochemical, fluorescence polarization, uHTS (AID 2014)
Polyadenylate-binding protein 1, sequence (P11940 whole entry): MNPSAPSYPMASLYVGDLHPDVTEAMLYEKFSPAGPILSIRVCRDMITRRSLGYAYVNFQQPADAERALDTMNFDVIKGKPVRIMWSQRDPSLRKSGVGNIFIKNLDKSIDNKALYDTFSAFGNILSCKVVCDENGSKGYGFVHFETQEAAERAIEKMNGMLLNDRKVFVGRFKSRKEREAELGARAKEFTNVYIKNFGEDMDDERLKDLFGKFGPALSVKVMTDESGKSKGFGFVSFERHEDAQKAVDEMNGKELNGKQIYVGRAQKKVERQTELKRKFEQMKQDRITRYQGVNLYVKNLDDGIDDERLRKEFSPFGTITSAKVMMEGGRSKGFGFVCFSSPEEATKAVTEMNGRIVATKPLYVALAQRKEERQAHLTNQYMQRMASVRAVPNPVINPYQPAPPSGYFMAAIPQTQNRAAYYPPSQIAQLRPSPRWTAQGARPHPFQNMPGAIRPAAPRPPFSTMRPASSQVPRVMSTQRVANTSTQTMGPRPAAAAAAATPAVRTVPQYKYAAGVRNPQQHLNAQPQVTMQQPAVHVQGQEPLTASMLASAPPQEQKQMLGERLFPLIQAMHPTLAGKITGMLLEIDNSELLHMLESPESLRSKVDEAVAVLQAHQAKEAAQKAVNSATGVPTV

[11] = HEp-2 cell cytotoxicity, dose response, cytotoxicity control for RSV inhibitor project, HTS (AID 2410); assay type: functional; conditions: human respiratory syncytial virus
[12] = Shn3 3'UTR reporter inhibitors, dose response, cell-based, Clone20 osteoblasts, firefly luciferase, cherry-picked (AID 624132); assay type: functional;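 also: firefly luciferase luminescence from reporter carrying the Shn3 3'UTR in osteoblasts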
[13] = HepG2 cell cytotoxicity, dose response, cytotoxicity control for Shn3 inhibitor project, CellTiter-Glo, cherry-picked (AID 624134); assay type: functional, cell-based
[14] = control 3'UTR Renilla luciferase suppression, dose response, counter-screen for Shn3 inhibitor project, cell-based, Clone20-Shn3RL, cherry-picked (AID 624133); assay type: functional
[15] = target: T5, Apoptotic protease-activating factor 1 (Homo sapiens, UniProt O14727); assay type: functional
T5 sequence (O14727 whole entry): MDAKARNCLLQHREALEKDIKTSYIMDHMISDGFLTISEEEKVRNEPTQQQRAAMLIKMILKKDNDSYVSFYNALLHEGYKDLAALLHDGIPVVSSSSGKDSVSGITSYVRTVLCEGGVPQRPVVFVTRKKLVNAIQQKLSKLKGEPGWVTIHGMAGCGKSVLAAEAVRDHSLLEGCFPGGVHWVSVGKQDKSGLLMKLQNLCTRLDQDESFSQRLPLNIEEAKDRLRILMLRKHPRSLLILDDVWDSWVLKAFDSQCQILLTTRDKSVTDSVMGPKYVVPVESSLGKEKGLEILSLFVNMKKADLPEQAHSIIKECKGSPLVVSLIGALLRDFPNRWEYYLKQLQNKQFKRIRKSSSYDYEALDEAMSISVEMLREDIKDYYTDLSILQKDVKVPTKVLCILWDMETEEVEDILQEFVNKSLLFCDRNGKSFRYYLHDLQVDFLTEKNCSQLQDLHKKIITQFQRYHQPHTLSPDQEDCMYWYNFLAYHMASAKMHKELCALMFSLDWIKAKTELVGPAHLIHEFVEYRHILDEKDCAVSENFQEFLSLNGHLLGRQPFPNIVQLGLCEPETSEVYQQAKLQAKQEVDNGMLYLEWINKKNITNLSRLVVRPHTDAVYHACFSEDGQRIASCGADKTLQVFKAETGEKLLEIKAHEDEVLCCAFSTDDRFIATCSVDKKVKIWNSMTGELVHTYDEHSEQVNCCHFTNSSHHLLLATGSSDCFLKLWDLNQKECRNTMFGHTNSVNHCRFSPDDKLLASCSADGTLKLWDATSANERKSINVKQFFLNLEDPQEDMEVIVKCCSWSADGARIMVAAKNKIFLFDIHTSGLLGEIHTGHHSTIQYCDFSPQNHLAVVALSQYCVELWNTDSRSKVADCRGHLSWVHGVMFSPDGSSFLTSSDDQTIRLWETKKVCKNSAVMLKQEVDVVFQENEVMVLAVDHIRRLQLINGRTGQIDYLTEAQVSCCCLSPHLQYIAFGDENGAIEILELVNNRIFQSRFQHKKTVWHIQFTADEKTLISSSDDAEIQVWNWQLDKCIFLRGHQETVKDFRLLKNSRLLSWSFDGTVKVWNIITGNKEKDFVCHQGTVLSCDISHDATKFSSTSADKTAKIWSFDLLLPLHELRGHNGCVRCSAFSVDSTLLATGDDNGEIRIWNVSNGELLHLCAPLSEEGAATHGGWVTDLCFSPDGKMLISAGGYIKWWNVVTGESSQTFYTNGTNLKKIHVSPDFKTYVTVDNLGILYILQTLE

Genome polyprotein = Genome polyprotein (dengue virus type 2, UniProt P29990); test: Dengue-2 NS5 methyltransferase inhibitors, primary screen, biochemical, confirmation dose response (AID 588689); assay type: functional
[16] = target: T6, Tyrosyl-DNA phosphodiesterase 2 (Homo sapiens, UniProt O95551); test: human TDP2 enzyme inhibitors, dose response, biochemical, epi absorbance, IC50 (AID 743297)
T6 sequence (O95551 whole entry): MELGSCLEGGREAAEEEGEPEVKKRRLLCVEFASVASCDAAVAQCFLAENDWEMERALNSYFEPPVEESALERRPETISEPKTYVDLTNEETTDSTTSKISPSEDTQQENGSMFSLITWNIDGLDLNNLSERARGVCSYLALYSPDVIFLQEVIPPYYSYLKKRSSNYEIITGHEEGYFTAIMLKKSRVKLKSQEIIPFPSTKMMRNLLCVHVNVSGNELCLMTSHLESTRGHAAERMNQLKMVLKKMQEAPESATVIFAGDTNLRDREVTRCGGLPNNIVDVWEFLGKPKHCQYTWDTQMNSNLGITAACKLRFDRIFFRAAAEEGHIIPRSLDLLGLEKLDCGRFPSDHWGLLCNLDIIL

Trypsin, sequence (P00761 whole entry): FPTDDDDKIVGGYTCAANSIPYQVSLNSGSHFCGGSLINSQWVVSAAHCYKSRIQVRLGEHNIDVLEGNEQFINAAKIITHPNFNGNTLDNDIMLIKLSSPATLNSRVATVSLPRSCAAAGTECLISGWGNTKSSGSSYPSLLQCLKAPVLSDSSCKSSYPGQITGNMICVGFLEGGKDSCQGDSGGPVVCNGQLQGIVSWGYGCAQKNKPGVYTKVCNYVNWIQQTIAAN

## COc1c2ccoc2nc2c(OC)cccc12 [GAMMA-FAGARINE]
Trypsin
  AC50: 9.78 µM (active)

## Cc1cc(/C=C2\C(=N)N3N=C(c4ccco4)SC3=NC2=O)c(C)n1Cc1ccccc1
SUMO-activating enzyme [1]
  IC50: 8.55 µM (active)
SUMO-activating enzyme [2]
  IC50: 7.54 µM (active)

## O=C(Nc1ccc(S(=O)(=O)N2CCCCCC2)cc1)c1ccc(Br)o1
[3]
  EC50: 7.13 µM (active)

## COc1ccc(C(=O)Oc2cccc3cccnc23)cc1S(=O)(=O)N1CCOCC1
[4]
  CC50: 26.6 µM (active)
[5]
  CC50: 18 µM (active)
cells
  IC50: 6.24 µM (active)

## COc1cc(C(=O)Nc2ccc3c(c2)C(=O)c2ccccc2C3=O)cc(OC)c1OC
[6]
  IC50: 2.77 µM (active)

## CCOC(=O)c1ccc(NC(=O)C2C3CCC(C3)C2C(=O)O)cc1 (centres undefined)
Leucine aminopeptidase
  IC50: 20 µM (active)
[7]
  IC50: > 100 µM (active)

## CC/C(=N\n1nnnc1Nc1ccccc1)c1ccccc1
[3]
  EC50: 5.34 µM (active)

## N#CC1=C(N)Oc2[nH]nc(-c3ccc(F)cc3)c2C1c1ccncc1 (centres undefined)
Leucine aminopeptidase
  IC50: 94.3 µM (active)
[8]
  AC50: 7.34 µM (active)
Protein RecA
  EC50: 5.79 µM (active)

## CC1=CC(C)C2C(=O)N(CCC[N+](C)(C)C)C(=O)C2C1 (centres undefined)
[9]
  IC50: 97.8 µM (active)
[10]
  IC50: 6.94 µM (active)

## Cc1cccc(NC(=O)CNc2cc(C)ccc2C)c1
[3]
  EC50: 15.2 µM (active)

## CCN1CCN(c2nc3ccccc3nc2C(C#N)C(=O)OCc2ccccc2)CC1 (centres undefined)
[9]
  IC50: 93.8 µM (active)
[10]
  IC50: 44.8 µM (active)

## CC(C)(C)n1nnnc1C(c1ccc(C(F)(F)F)cc1)N(Cc1ccc(F)cc1)Cc1ccco1 (centres undefined)
[11]
  CC50: 10.3 µM (active)
[3]
  EC50: 2.84 µM (active)
[12]
  AC50: 10.1 µM (active)
[13]
  AC50: 40.3 µM (active)
[14]
  AC50: 18.8 µM (active)

## COc1cc(C(c2c(C)[nH]n(-c3ccccc3)c2=O)c2c(C)[nH]n(-c3ccccc3)c2=O)cc(OC)c1OC
SUMO-activating enzyme [1]
  IC50: 6.66 µM (active)
SUMO-activating enzyme [2]
  IC50: 33.9 µM (active)
[15]
  IC50: 24.4 µM (active)
Genome polyprotein
  IC50: 38.3 µM (active)
[16]
  IC50: 19.9 µM (inactive)

From ChEMBL document CHEMBL1201862, “PubChem BioAssay data set” (2004)
